Source: publication PMC7719179, “Small molecule inhibition of Dynamin-dependent endocytosis targets multiple niche signals and impairs leukemia stem cells” (Nature Communications, 2020)
Several values for one entry are separate records, joined by “and”; a condition that tells them apart may be missing. Identical values can stand only once. Like-named read-outs stand apart in the source and are kept apart here.

Assays:
primary Lmo2^Tg T-ALL = test: Relative viability and LC50 on primary Lmo2^Tg leukemias, 48 h; type: cell-based, mouse; set-up: Relative % viable cells: unit of the concentration uncertain; details: for viability at 200 µM / viability at 40 µM: Mus musculus
Experimental: Supplementary Figure 6 . Efficacy of Dynole 34-2 on primary Lmo2-transgenic T-ALL. a, Relative viability (%) of primary Lmo2Tg leukemias treated with increasing concentration of Dynole 34-2 for 48 hours. Viability was normalized to vehicle-treated cells with experiments performed in duplicates or triplicates. […]
concentration (LC50) of Dynole 34-2 for each primary L mo2Tg T-ALL are indicated (right panel). […]

[1] = tested on: HES1 in patient-derived ETP-ALL and T-ALL cells; test: NOTCH1-induced HES1 in human ETP-ALL and T-ALL xenograft cells; type: cell-based; details: for HES1 relative expression, FOLD: fold over unstimulated
Experimental: Splenocytes from secondary xenografts were processed as previously described. […] Flow cytometric analysis of surface IL-7R levels and intracellular levels of pSTAT5 were performed as described in the FACS analysis section. For activation of NOTCH1-mediated signalling, 5 × 10^5 rested leukemia cells were seeded on OP9-DL1 stromal cells. Co-culture on OP9 stromal cells was used as a negative control. After 16 h of co-culture, leukemia cells were washed twice using cold PBS 1×. Flow cytometric analysis of NOTCH1 expression and intracellular levels of HES1 were performed as described in the FACS analysis section.

[2] = tested on: ETP12 and ALL8 patient-derived xenografts; test: Survival (Kaplan-Meier) and leukemia growth delay in ETP12 and ALL8 xenograft recipients; type: in vivo, human
Experimental: Patient-derived xenograft models were established as previously described[97],[98]. All experiments were pre-approved by the Human Research Ethics Committee of the University of New South Wales (UNSW), the UNSW Animal Care and Ethics Committee, the Alfred Health Human Ethics Committee and the AMREP Animal Ethics Committee. For transplantation assays, 10^6 splenocytes harvested from successfully engrafted primary human ETP-ALL or T-ALL xenografts were injected into nonobese diabetic/severe combined immunodeficient (NOD.Cg-Prkdc^scid, also termed NOD/SCID) or NOD/SCID/Il2rg^tm1wjl/SzJ (NSG) mice[99]. Moreover, 1.5 × 10^6 cells splenocytes harvested from successfully engrafted patient-derived AML xenografts were injected into nonobese diabetic/severe immunodeficient (NOD.Cg-Rag1^tm1MomIl2rg^tm1wjl/SzJ, also termed NRG) mice expressing human IL-3, human GM-CSF and human SCF from the SGM3 triple transgene (NRGS)[100]. Engraftment into recipients was monitored by FACS analysis of peripheral blood as previously described. […] Both males and females were used. […] Kaplan–Meier survival and statistical analyses were performed using GraphPad Prism. 6.0 software (GraphPad Software, Inc.). […]
(blue circles) and ALL8 (red open circles) 24 hours after the last dose of drugs was administered.
therapy. Median is indicated (bar) with Mean ± SEM indicated for ETP12 and ALL8, 2-way ANOVA
period of administration is indicated in light grey.

Ba/F3-SGM3R cells = test: Survival of cytokine-dependent Ba/F3-SGM3R cells, 48 h; type: cell-based, murine; details: result in words
Source text: The coding sequence of murine Csf2ra (gm-csfr) and c-Kit was amplified by PCR from cDNA of bone marrow mononuclear cells of a healthy WT donor using primers mGmcsfr-FL-F and mGmcsfr-FL-R, and mKit-FL-F and mKit-FL-R, respectively (Table 3). The PCR product was cloned into the XhoI and EcoRI sites of pMIG-R1, which was kindly given by Pear et al.[82],[83]. Ba/F3 cells were infected with pMIG-R1/Gmcsfr retroviral supernatants produced in 293T cells, transduced cells were sorted with a BD Influx (BD Australia) and selected by culture in medium supplemented with 25 ng/mL rmGm-csf (#305-03, Pepro Tech, Rocky Hill NJ, USA) for 7 days. Finally, Ba/F3 cells stably expressing Gm-csfr were infected with pMIG-R1/Kit retroviral supernatants produced in 293T cells to generate Ba/F3-SMG3R cells, which were sorted with a BD Influx and maintained in medium supplemented with 5 ng/mL rmIL-3 (#213-13, Pepro Tech, Rocky Hill NJ, USA).
Supplementary Figure 8. […]
Basal levels of live cells were measured in BaF3-SGM3R cells cultured without cytokines (white bar). b, Levels of activated Stat5 (pStat5) in BaF3-SGM3 R cells stimulated with IL-3 (purple bars) and GM -CSF (yellow bars), and SCF-induced phospho-Erk (green bars), treated with increasing doses of Dynole 34-2 assessed by flow cytometry.

## CCCCCCCCNC(=O)C(C#N)=Cc1cn(CCCN(C)C)c2ccccc12 [Dynole 34-2, 2-Cyano-N-octyl-3-(1-(3-dimethylaminopropyl)-1H-indol-3-yl)-acrylamide]
Primary Lmo2^Tg T-ALL; read-out: Relative % viable cells, T-ALL 249, dose 0.2 mM
  viability at 200 µM: 94.3%
Primary Lmo2^Tg T-ALL; read-out: Relative % viable cells, T-ALL 257, dose 0.04 mM
  viability at 40 µM: 92.3%
Primary Lmo2^Tg T-ALL; read-out: Relative % viable cells, T-ALL 257, dose 0.2 mM
  viability at 200 µM: 76.4%
Primary Lmo2^Tg T-ALL; read-out: Relative % viable cells, T-ALL 273, dose 0.2 mM
  viability at 200 µM: 96.1%
Primary Lmo2^Tg T-ALL; read-out: Relative % viable cells, T-ALL 582, dose 0.2 mM
  viability at 200 µM: 97.6%
Primary Lmo2^Tg T-ALL; read-out: Relative % viable cells, T-ALL 588, dose 0.04 mM
  viability at 40 µM: 114%
Primary Lmo2^Tg T-ALL; T-ALL 249, dose 0.2 (unit uncertain)
  Relative % viable cells: 101.0% and 98.6%
Primary Lmo2^Tg T-ALL; T-ALL 249, dose 1 (unit uncertain)
  Relative % viable cells: 97.4%
Primary Lmo2^Tg T-ALL; T-ALL 249, dose 5 (unit uncertain)
  Relative % viable cells: 98.6% and 97.8%
Primary Lmo2^Tg T-ALL; T-ALL 249, dose 25 (unit uncertain)
  Relative % viable cells: 14.0%
Primary Lmo2^Tg T-ALL; T-ALL 257, dose 0.04 (unit uncertain)
  Relative % viable cells: 86.6%
Primary Lmo2^Tg T-ALL; T-ALL 257, dose 0.2 (unit uncertain)
  Relative % viable cells: 75.9%
Primary Lmo2^Tg T-ALL; T-ALL 257, dose 1 (unit uncertain)
  Relative % viable cells: 71.8%
Primary Lmo2^Tg T-ALL; T-ALL 257, dose 5 (unit uncertain)
  Relative % viable cells: 49.8%
Primary Lmo2^Tg T-ALL; T-ALL 273, dose 0.2 (unit uncertain)
  Relative % viable cells: 96.5% and 91.9%
Primary Lmo2^Tg T-ALL; T-ALL 273, dose 1 (unit uncertain)
  Relative % viable cells: 92.9% and 93.1%
Primary Lmo2^Tg T-ALL; T-ALL 273, dose 5 (unit uncertain)
  Relative % viable cells: 56.4% and 42.9%
Primary Lmo2^Tg T-ALL; T-ALL 273, dose 10 (unit uncertain)
  Relative % viable cells: 20.2% and 18.0%
Primary Lmo2^Tg T-ALL; T-ALL 273, dose 25 (unit uncertain)
  Relative % viable cells: 17.9%
Primary Lmo2^Tg T-ALL; T-ALL 582, dose 0.2 (unit uncertain)
  Relative % viable cells: 94.2%
Primary Lmo2^Tg T-ALL; T-ALL 582, dose 1 (unit uncertain)
  Relative % viable cells: 97.3%
Primary Lmo2^Tg T-ALL; T-ALL 582, dose 5 (unit uncertain)
  Relative % viable cells: 75.4% and 57.9%
Primary Lmo2^Tg T-ALL; T-ALL 582, dose 10 (unit uncertain)
  Relative % viable cells: 8.4% and 8.6%
Primary Lmo2^Tg T-ALL; T-ALL 582, dose 25 (unit uncertain)
  Relative % viable cells: 6.2%
Primary Lmo2^Tg T-ALL; T-ALL 588, dose 0.04 (unit uncertain)
  Relative % viable cells: 111.1%
Primary Lmo2^Tg T-ALL; T-ALL 588, dose 0.2 (unit uncertain)
  Relative % viable cells: 107.5% and 75.9%
Primary Lmo2^Tg T-ALL; T-ALL 588, dose 1 (unit uncertain)
  Relative % viable cells: 100.1%
Primary Lmo2^Tg T-ALL; T-ALL 588, dose 5 (unit uncertain)
  Relative % viable cells: 75.8%
Primary Lmo2^Tg T-ALL; T-ALL 588, dose 25 (unit uncertain)
  Relative % viable cells: 11.9%
Primary Lmo2^Tg T-ALL; T-ALL 742, dose 0.2 (unit uncertain)
  Relative % viable cells: 53.7% and 80.5%
Primary Lmo2^Tg T-ALL; T-ALL 742, dose 1 (unit uncertain)
  Relative % viable cells: 25.7%
Primary Lmo2^Tg T-ALL; T-ALL 742, dose 5 (unit uncertain)
  Relative % viable cells: 22.9%
Primary Lmo2^Tg T-ALL; T-ALL 742, dose 25 (unit uncertain)
  Relative % viable cells: 0.0%
Primary Lmo2^Tg T-ALL; result in words
  killing of LSCs from primary Lmo2^Tg T-ALL: dose-dependent killing
[1]; ALL8
  HES1 relative expression, MFI: 4877 MFI and 4405 MFI
  HES1 relative expression, FOLD: 0.60 FOLD and 0.67 FOLD
[1]; ALL16
  HES1 relative expression, MFI: 5772 MFI and 5666 MFI
  HES1 relative expression, FOLD: 0.83 FOLD and 0.85 FOLD
[1]; ALL29
  HES1 relative expression, MFI: 5243 MFI and 5145 MFI
  HES1 relative expression, FOLD: 0.70 FOLD and 0.71 FOLD
[1]; ALL31
  HES1 relative expression, MFI: 5977 MFI and 5691 MFI
  HES1 relative expression, FOLD: 0.71 FOLD and 0.74 FOLD
[1]; ALL33
  HES1 relative expression, MFI: 6590 MFI and 6678 MFI
  HES1 relative expression, FOLD: 0.90 FOLD and 0.89 FOLD
[1]; ETP1
  HES1 relative expression, MFI: 6721 MFI and 6600 MFI
  HES1 relative expression, FOLD: 0.88 FOLD and 0.90 FOLD
[1]; ETP5
  HES1 relative expression, MFI: 7460 MFI and 7513 MFI
  HES1 relative expression, FOLD: 0.72 FOLD
[1]; ETP8
  HES1 relative expression, MFI: 6107 MFI and 5672 MFI
  HES1 relative expression, FOLD: 0.72 FOLD and 0.78 FOLD
[1]; ETP12
  HES1 relative expression, MFI: 6018 MFI and 5803 MFI
  HES1 relative expression, FOLD: 0.87 FOLD and 0.89 FOLD
[1]; ETP13
  HES1 relative expression, MFI: 4629 MFI and 4445 MFI
  HES1 relative expression, FOLD: 0.69 FOLD and 0.72 FOLD
[1]; ETP14
  HES1 relative expression, MFI: 4477 MFI and 4496 MFI
  HES1 relative expression, FOLD: 0.89 FOLD and 0.86 FOLD
[1]; immature and mature subtypes of human T-ALL, result in words
  HES1 protein levels: significantly decreased
[2]; ETP12 and ALL8 xenografts, result in words
  survival of recipients, single agent: significant survival advantage
[2]; PDX ALL8
  Leukemia Growth Delay (LGD) Over Vehicle: 2.62 days
[2]; PDX ETP12
  Leukemia Growth Delay (LGD) Over Vehicle: 7.34 days
  Time to leukemia: 4.63 weeks and 5.6 weeks and 4.86 weeks and 4.8 weeks and 5.54 weeks and 4.7 weeks and 4.81 weeks and 6.67 weeks
Ba/F3-SGM3R cells
  cell death of Ba/F3-SGM3R cells: induced cell death in a dose-dependent manner
